The values that follow come from US20080287398A1, “COLD MENTHOL RECEPTOR-1 ANTAGONISTS” (priority 2007, published 2008).

For one test, the system named is Sprague-Dawley rats. Kind of test: CFA-induced paw radiant heat hypersensitivity. Format: in vivo, rat. To be noted: for % Reversal: rat, 30 mg/kg p.o.; for inhibition in vivo at 30 mg/kg / ED50: Rattus norvegicus; for inhibition in vivo at 30 mg/kg: read-out: % Reversal. On the procedure: Intraplantar injection of Complete Freund's Adjuvant (CFA) in rodents results in a long-lasting inflammatory reaction, characterized by a pronounced hypersensitivity to both thermal and mechanical stimuli. This hypersensitivity peaks between 24-72 hours following injection and can last for several weeks. […] This paradigm also may be conducted with a multiple dosing or a prophylactic dosing regime designed to alter the course of hyperalgesia development. This test predicts the analgesic, anti-allodynic and antihyperalgesic effect of numerous effective clinical agents, including NSAIDS such as acetaminophen, aspirin and ibuprofen, and opioids such as morphine.
Each rat was placed in a test chamber on a warm glass surface and allowed to acclimate for approximately 10 minutes. A radiant thermal stimulus (beam of light) was then focused through the glass onto the plantar surface of each hind paw in turn. The thermal stimulus was automatically shut off by a photoelectric relay when the paw was moved or when the cut-off time was reached (20 seconds for radiant heat at ˜5 Amps). An initial (baseline) response latency to the thermal stimulus was recorded for each animal prior to the injection of CFA. Twenty-four hours following intraplantar CFA injection, the response latency of the animal to the thermal stimulus was then re-evaluated and compared to the animal's baseline response time. […] Immediately following the post-CFA latency assessment, test compound or vehicle (usually Solutol, hydroxypropyl methylcellulose, hydroxypropyl beta-cyclodextrin or PEG-400) was administered i.p. or p.o. to rats. […] The percent reversal (% R) of hypersenstivitiy was calculated according to the following formula:
% Reversal=(Treatment Response-CFA Response)/(Baseline Response-CFA Response)×100.

For the next test, the target named is T1, canine TRPM8 (Canis lupus familiaris, UniProt Q1A7N1).
T1 construct: expressed in transfected cells
T1 sequence (Q1A7N1 1-1104): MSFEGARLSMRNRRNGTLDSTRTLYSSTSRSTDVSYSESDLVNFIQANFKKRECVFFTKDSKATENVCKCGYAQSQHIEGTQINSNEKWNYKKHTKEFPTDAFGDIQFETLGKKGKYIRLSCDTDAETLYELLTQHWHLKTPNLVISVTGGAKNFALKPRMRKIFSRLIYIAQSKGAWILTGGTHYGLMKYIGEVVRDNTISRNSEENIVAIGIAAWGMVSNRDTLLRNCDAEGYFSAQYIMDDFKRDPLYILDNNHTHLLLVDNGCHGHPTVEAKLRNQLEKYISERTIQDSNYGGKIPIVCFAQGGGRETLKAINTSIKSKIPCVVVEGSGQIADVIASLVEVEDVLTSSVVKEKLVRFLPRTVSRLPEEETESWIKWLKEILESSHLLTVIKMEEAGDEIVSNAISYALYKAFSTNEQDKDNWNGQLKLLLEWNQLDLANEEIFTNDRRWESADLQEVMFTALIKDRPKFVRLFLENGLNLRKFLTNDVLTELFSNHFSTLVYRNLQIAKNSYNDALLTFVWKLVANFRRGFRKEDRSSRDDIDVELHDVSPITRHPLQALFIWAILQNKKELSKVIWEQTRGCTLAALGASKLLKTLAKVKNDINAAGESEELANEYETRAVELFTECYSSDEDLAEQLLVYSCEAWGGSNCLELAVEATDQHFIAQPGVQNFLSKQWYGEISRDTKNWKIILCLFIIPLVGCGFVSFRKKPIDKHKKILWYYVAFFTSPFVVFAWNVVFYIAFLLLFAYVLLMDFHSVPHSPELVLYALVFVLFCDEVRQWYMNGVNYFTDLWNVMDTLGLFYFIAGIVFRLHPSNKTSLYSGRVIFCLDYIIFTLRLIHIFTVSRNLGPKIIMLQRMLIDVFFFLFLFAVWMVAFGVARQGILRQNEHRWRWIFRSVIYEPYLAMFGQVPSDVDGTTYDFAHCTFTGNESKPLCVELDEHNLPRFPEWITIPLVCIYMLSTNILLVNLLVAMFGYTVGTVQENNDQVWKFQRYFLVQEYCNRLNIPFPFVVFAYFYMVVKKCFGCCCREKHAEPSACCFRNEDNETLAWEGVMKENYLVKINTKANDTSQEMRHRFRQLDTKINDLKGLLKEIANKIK
Kind of test: In vitro canine TRPM8 functional assay (Ca2+-sensitive dye, FLIPR/FDSS, icilin activation). It counts as cell-based. As to conditions: HEK293 cells expressing canine TRPM8, icilin activation; for % I (0.5 μM): 0.5 μM compound; for IC50: eight-point dose-response; for inhibition at 1 µM: HEK293, read-out: % I (1 μM), 1 μM compound; for % I (1 μM): 1 μM compound. The procedure, abridged: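 Icilin challenge (final concentration producing ~80% of maximal response) followed a 5 min compound exposure in canine TRPM8-HEK293 cells dye-loaded with Calcium 3. Intracellular Ca2+ was read on FLIPR/FDSS. EC50 and IC50 values came from nonlinear sigmoidal dose-response fits of basal-subtracted, percent-of-maximum data averaged over quadruplicates.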

Where [1] appears, read: HEK293, 0.5 μM compound, read-out: % I (0.5 μM).

Several values for one entry are separate records, joined by “and”; a condition that tells them apart may be missing. Equal values may be shown once. Read-outs that look alike come from different tables or passages of the source.

Broadly, the IC50 is the concentration that gives 50% inhibition. Consider `CCOP(=O)(OCC)C(Cc1ccc(F)c(Cl)c1)c1sc2ccccc2c1Br` (racemic) [Cpd 244], for which the “% Reversal” value with Sprague-Dawley rats (time 2 h (printed 2 h or 2)) was 45%. Moreover, the “% I (0.5 μM)” value at canine TRPM8 is recorded as 103%. Further, at canine TRPM8 (read-out: IC50), the IC50 stood at 0.028 µM.
For the molecule `CCOP(=O)(OCC)C(Cc1ccc(F)c(C(F)(F)F)c1)c1sc2ccccc2c1Cl` (racemic) [Cpd 298], the “% Reversal” value with Sprague-Dawley rats (time 1 h) turned out to be 20%. Besides, the “% I (0.5 μM)” value at canine TRPM8 turned out to be 99%. For the same molecule, the IC50 on canine TRPM8 (read-out: IC50) turned out to be 0.085 µM.
As to `CCOP(=O)(OCC)C(Cc1ccc(SC)cc1)c1sc2ccccc2c1Cl` (racemic) [Cpd 299], in the test on Sprague-Dawley rats (time 1 h), the “% Reversal” value came to 23%. Moreover, at canine TRPM8, the “% I (0.5 μM)” value is 101%. On canine TRPM8 (read-out: IC50), the IC50 came out at 0.141 µM.
Take `CC(C)OP(=O)(OC(C)C)C(Cc1ccc(F)c(F)c1)c1sc2ccccc2c1Cl` (stereo not shown) [Cpd 12, [1-(3-Chloro-benzo[b]thiophen-2-yl)-2-(3,4-difluoro-phenyl)-ethyl]-phosphonic acid diisopropyl ester]: the inhibition in vivo at 30 mg/kg in the test on Sprague-Dawley rats (ip, 1 h) was found to be 105%. Also, the inhibition at 1 µM on canine TRPM8 worked out at 100%. Also, at canine TRPM8 (IC50 (μM)), the IC50 was 0.043 µM and 0.13 µM.
In general, ED50 refers to the dose at which the effect has come halfway, by size or by number of responders. Turning to `CCOP(=O)(OCC)C(Cc1ccc(F)c(F)c1)c1sc2ccccc2c1Br` (stereo not shown) [Cpd 127, [1-(3-Bromo-benzo[b]thiophen-2-yl)-2-(3,4-difluoro-phenyl)-ethyl]-phosphonic acid dethyl ester], the ED50 with Sprague-Dawley rats (po) came to 5.2 mg/kg; in the test with Sprague-Dawley rats (po, 1 h, read-out: oral ED50), 5.2 mg/kg. Also, the inhibition in vivo at 30 mg/kg in the test on Sprague-Dawley rats (po, 1 h) was determined as 88%. The inhibition at 1 µM on canine TRPM8 came to 100%. Besides, at canine TRPM8 (IC50 (μM)), the IC50 was determined as 0.052 µM.
With `CCOP(=O)(OCC)C(Cc1cccc(Cl)c1)c1sc2ccccc2c1Br` (stereo not shown) [Cpd 137, [1-(3-Bromo-benzo[b]thiophene-2-yl)2-(3-chloro-phenyl)-ethyl]-phosphonic acid diethyl ester], the inhibition in vivo at 30 mg/kg with Sprague-Dawley rats (po, 1 h) worked out at 34%. Moreover, the inhibition at 0.5 µM at canine TRPM8 (HEK293, read-out: % I (0.5 μM), 0.5 μM compound) came out at 102%. The same molecule came in with an IC50 against canine TRPM8 (IC50 (μM)) of 0.024 µM.
As for `CC(C)OP(=O)(OC(C)C)C(Cc1ccc(Cl)c(F)c1)c1sc2ccccc2c1Br` (stereo not shown) [Cpd 190], the “% Reversal” value in the test on Sprague-Dawley rats (time 1 h) was found to be 45%. Moreover, the “% I (0.5 μM)” value on canine TRPM8 is recorded as 104%. Further, the 50% inhibitory concentration (IC50) on canine TRPM8 (read-out: IC50) was determined as 0.102 µM.
Consider `CC(C)OP(=O)(OC(C)C)C(Cc1ccc(F)cc1)c1sc2ccccc2c1Br` (stereo not shown) [Cpd 197], for which, in the test with Sprague-Dawley rats (time 2 h (printed 2 h or 2)), the “% Reversal” value is reported as 23%. In addition, on canine TRPM8, the “% I (0.5 μM)” value was 102% and the “% I (1 μM)” value was 100%.
`CCOP(=O)(OCC)C(Cc1ccc(O)cc1)c1sc2ccccc2c1Br` (stereo not shown) [Cpd 324]: the “% I (0.5 μM)” value on canine TRPM8 is 54%.
Turning to `CC(C)OP(=O)(OC(C)C)C(Cc1cccc(O)c1)c1sc2ccccc2c1Br` (stereo not shown) [Cpd 325], the “% I (0.5 μM)” value at canine TRPM8 turned out to be 97%. Besides, the IC50 at canine TRPM8 (read-out: IC50) came to 0.01 µM.
Consider `COc1ccc(CC(c2sc3ccccc3c2Br)P(=O)(OC(C)C)OC(C)C)cc1C(F)(F)F` (stereo not shown) [Cpd 326], for which, at canine TRPM8, the “% I (0.5 μM)” value was 103% and 102%. Further, at canine TRPM8 (read-out: IC50), the IC50 was 0.086 µM and 0.051 µM.
Regarding `CC(C)OP(=O)(OC(C)C)C(Cc1ccc(F)c(C(F)(F)F)c1)c1c(Br)c2ccccc2n1C(=O)OC(C)(C)C` (stereo not shown) [Cpd 327, 3-Bromo-2-[1-(diisopropoxy-phosporyl)-2-(4-fluoro-3-trifluoromethyl-phenyl)-ethyl]-indole-1-carboxylic acid tert-butyl ester], the “% I (0.5 μM)” value at canine TRPM8 came out at 44%.
Take `CC(C)OP(=O)(OC(C)C)C(Cc1ccc(F)c(C(F)(F)F)c1)c1c(Br)c2ccccc2n1C` (stereo not shown) [Cpd 328, [1-(3-Bromo-1-methyl-1H-indol-2-yl)-2-(4-fluoro-3-trifluoromethyl-phenyl)-ethyl]-phosphonic acid diisopropyl ester]: the inhibition at 0.5 µM at canine TRPM8 (setting [1]) was 102%. Also, the IC50 on canine TRPM8 (read-out: IC50) came to 0.193 µM.
For the molecule `CC(C)OP(=O)(OC(C)C)C(Cc1ccc(F)c(C(F)(F)F)c1)c1c(Br)c2ccccc2n1S(C)(=O)=O` (stereo not shown) [Cpd 330, [1-(3-Bromo-1-methanesulfonly-1H-indol-2-yl)-2-(4-fluoro-3-trifluoromethyl-phenyl)-ethyl]-phosphonic acid diisopropyl ester], the IC50 at canine TRPM8 (read-out: IC50) came out at 0.137 µM.
For `CC(=O)n1c(C(Cc2ccc(F)c(C(F)(F)F)c2)P(=O)(OC(C)C)OC(C)C)c(Br)c2ccccc21` (stereo not shown) [Cpd 331], the “% I (0.5 μM)” value on canine TRPM8 came to 101%. For the same molecule, the IC50 on canine TRPM8 (read-out: IC50) turned out to be 0.152 µM.
As for `CCCS(=O)(=O)n1c(C(Cc2ccc(F)c(C(F)(F)F)c2)P(=O)(OC(C)C)OC(C)C)c(Br)c2ccccc21` (stereo not shown) [Cpd 332], on canine TRPM8, the “% I (0.5 μM)” value is listed as 72%.
For `CC(C)OP(=O)(OC(C)C)/C(=C/c1ccc(F)c(F)c1)c1cc2ccccc2s1` [Cpd 333, (E)-[1-Benzo[b]thiophen-2-yl-2-(3,4-difluoro-phenyl)-vinyl]-phosphonic acid diisopropyl ester], the inhibition at 0.5 µM on canine TRPM8 (setting [1]) is 95%. Also, on canine TRPM8 (read-out: IC50), the IC50 is 0.176 µM.
Turning to `CC(C)OP(=O)(OC(C)C)/C(=C/c1ccc(F)c(F)c1)c1sc2ccccc2c1Br` [Cpd 334, (E)-[1-(3-Bromo-benzo[b]thiophen-2-yl)-2-(3,4-difluoro-phenyl)-vinyl]-phosphonic acid diisopropyl ester], the inhibition at 0.5 µM on canine TRPM8 (setting [1]) is 97%. For the same molecule, the 50% inhibitory concentration (IC50) on canine TRPM8 (read-out: IC50) turned out to be 0.11 µM.
As to `CC(C)OP(=O)(OC(C)C)C(Cc1cc(C(F)(F)F)ccc1F)c1sc2ccccc2c1Br` (stereo not shown) [Cpd 335], the “% Reversal” value in the test with Sprague-Dawley rats (time 1 h) worked out at 0%. In addition, the “% I (0.5 μM)” value at canine TRPM8 is 102%. The IC50 at canine TRPM8 (read-out: IC50) worked out at 0.035 µM.
With `CC(C)OP(=O)(OC(C)C)C(Cc1ccc(C(F)(F)F)cc1)c1sc2ccccc2c1Br` (stereo not shown) [Cpd 336], the “% Reversal” value in the test with Sprague-Dawley rats (time 1 h) stood at 64%. Further, on canine TRPM8, the “% I (0.5 μM)” value was determined as 102%. In addition, the IC50 at canine TRPM8 (read-out: IC50) stood at 0.043 µM.
“(R)-[1-(3-Bromo-benzo[b]thiophen-2-yl)-2-(4-fluoro-phenyl)-ethyl]-phosphonic acid diisopropyl ester [Cpd 240]”: the “% I (0.5 μM)” value at canine TRPM8 is 98% and 77%.
Same read-out and setting: the same measure for “(R)-[1-(3-Bromo-benzo[b]thiophen-2-yl)-2-(4-trifluoromethoxy-phenyl)-ethyl]-phosphonic acid diisopropyl ester [Cpd 237]”: 96% and 70%.
With “[2-(3,4-Difluoro-phenyl)-1-(3-methyl-benzo[b]thiophene-2-yl)-ethyl]-[3-(4-methoxy-phenyl)-propyl]-phosphonic acid ethyl ester [Cpd 135]”, the “% I (1 μM)” value on canine TRPM8 was 90%. At canine TRPM8 (read-out: IC50), the IC50 was found to be 0.41 µM.
The corresponding values for “[2-(3,4-Difluoro-phenyl)-1-(3-methyl-benzo[b]thiophene-2-yl)-ethyl]-[3-(4-methoxy-phenyl)-propyl]-phosphonic acid ethyl ester [Cpd 136]” are 91% and 0.42 µM.
As to “[2-(3,4-Difluoro-phenyl)-1-(3-methyl-benzo[b]thiophene-2-yl)-ethyl]-methyl-phosphonic acid ethyl ester [Cpd 30]”, the “% I (1 μM)” value on canine TRPM8 was 100% and 99%. Also, at canine TRPM8 (read-out: IC50), the IC50 was 0.12 µM and 0.2 µM.
As for “[2-(3,4-Difluoro-phenyl)-1-(3-methyl-benzo[b]thiophene-2-yl)-ethyl]-methyl-phosphonic acid ethyl ester [Cpd 106]”, at canine TRPM8, the “% I (1 μM)” value amounted to 32%. For the same molecule, the IC50 at canine TRPM8 (read-out: IC50) amounted to 1.26 µM.
